The test system of one assay is HL-60 cells. Nature of the assay: Apoptosis of HL-60 cells, DAPI staining of nuclear chromatin. It counts as cell-based. The note with it: for Apoptic Cell Percentage: 24 hours. The protocol:
Morphological changes in the nuclear chromatin of HL-60 cells undergoing apoptosis were detected by staining with 4′, 6-diamidino-2-phenylindole (DAPI). In brief, 0.5×10^6 to 3×10^6 cells were fixed with 4% glutaraledehyde, 0.2% Triton x-100, in PBS and incubated at room temperature for 10 min., then centrifuged at 1000×9 for 10 min., resuspended in 20 μ1 0.1% DAPI ethanol. Following 15 min. incubation at room temperature, at 10 μl aliquot was placed on a glass slide, and 400 cells per slide were scored for the incidence of apoptotic chromatin changes with a fluorescence microscope.

Another assay deals with thymocyte cells. Nature of the assay: M phase arrest, alpha-tubulin immunofluorescence and flow cytometry, thymocyte cells. Type of assay: cell-based. The note with it: 20 μM noscapine, 24 hr. The protocol:
(§1) Hela cells were grown in DMEM supplemented with 10% fetal calf serum, 1 mM L-glutamine and 1% penicillin/streptomycin. The tumor cell line E-G7-OV A […] [Moore, M. W., et al., Cell. 54, 777 (1988)] was grown in RPM1 1640 with 10% fetal calf serum, 1% sodium pyruvate, 1 mM L-glutamine, 0.1% gentamycin, 50 μtM β-mercaptoethanol. Cells were grown at 37° C. in a 5% CO2 atmosphere. Cell viability was assessed by trypan blue exclusion analysis. Cell numbers were determined using a hemacytometer, C57BL/6 […] mice, 8 to 12 weeks of age, were obtained from Harian Sprague Dawley, Inc. (Indiananapolis, Ind.). Mice were maintained on standard laboratory chow and water ad libitum, in a temperature and light controlled environment. For immunofluorescence, both Hela and thymocyte cells were treated identically except the Hela cells were grown onto glass coverslips while EL4 thymocytes were put on glass coverslips after fixation. […]
(§2) Then cells were washed with 1% BSA-PBS solution for 10 min. at room temperature before incubating with a 1:200 dilution of a rhodamine labeled goat anti-mouse IgG antibody at room temperature for 45 min., then the coverslips were rinsed by 1% BSA/PBS solution for 10 min. and labeled by DAPI (4′, 6-diamino-2-phenyliudole) for another 10 min. at room temperature. […] Cells were examined with a fluorescence microscope. […] The samples were read on a cytometer.
For orientation: Flow cytometry measures light scatter and fluorescence of single cells or particles in a stream.

Assay [1] deals with bovine brain tubulin. The experiment in a line: Microtubule assembly, turbidity at 350 nm. It counts as biochemical. The note with it: 20 μM noscapine, 37° C., G-PEM buffer. The protocol:
(§3) Phosphocellulose purified bovine brain tubulin was employed throughout these biophysical experiments. Fluorescence titration for determining binding constants was performed according to Peyrot, V. et al., Biochemistry 31, 11125 (1992). In brief; at room temperature, 2 μM tubulin in 100 mM PIPES, 2 mM EGTA, 1 mM MgCl2 was excited at 278 nm, and the fluorescence emission spectra were recorded with bandwidths 2 nm. […] The concentration of noscapine was raised in increments of 0.5 μM, until the decrease in the fluorescence intensity was saturated. The value of the dissociation constant and the number of sites were obtained from Scatchard plots using the equation, […], where r is the ratio of the concentration of bound ligand to the total protein concentration and n is the number of binding sites. Circular dichroism (CD) spectra measurements were performed in a spectroscometer, in cells (0.1 cm path) at 25° C. Microtubule assembly was recorded on a spectrophotometer with thermocontroler. The cuvettes (0.4 cm path) containing 100 mM PIPES, 2 mM EGTA, 1 mM MgCl2 and 1 mM GTP (G-PEM buffer), and 20 μM noscapine/DMSO were kept at room temperature before addition of tubulin and shifting to 37° C. […] The assembly was monitored by measuring the changes in turbidity at 0.5 min. intervals. Noscapine was dissolved in DMSO at 0.8 mM and stocked at 4° C. […]

In assay [2] the target is bovine brain tubulin. Nature of the assay: Tubulin binding by fluorescence titration, Scatchard plot. As for the experimental part: as §3
A further assay concerns lymphocyte cells. Nature of the assay: Apoptosis initiation: oligonucleosomal DNA fragmentation, DAPI staining, nick end labeling. It counts as cell-based. The note with it: noscapine treatment 0 to 24 hr. As for the experimental part: Oligonucleosomal fragmentation of genomic DNA was determined according to Walton, M. I. et. al., Cancer. Res. 53, 1853 (1993). An aliquot of 3.3×10^6 cells in 10 ml medium was incubated with […] for different time periods ranging from 0 to 24 hr. At the end of incubation, cells were pelleted and washed twice with ice-cold PBS, and lysed in 250 μl 1% (v/v) NP-40 detergent containing 0.5 mg/ml proteinase K in PBS solution on ice for 60 min. Samples were centrifuged, and the supernatants were removed and incubated with 5 μl 10 mg/ml Rnase A at 37° C. for 40 min. An aliquot of 1 ml anhydrous ethanol was added, tubes were placed at −20° C. for 20 min., then centrifuged to pellet DNA. […]
Morphological changes in the nuclear chromatin of cells undergoing apoptosis were detected by staining with 4′, 6-diamidino-2-phenylindole (DAPI). […] Following 15 min. incubation at room temperature, a 10 μl aliquot was placed on a glass slide, and 400 cells per slide were scored for the incidence of apoptotic chromatin changes with a fluorescence microscope. […]
After the slides were rinsed with PBS, 50 μl converter-POD solution was added on samples and incubated for 30 min. at 37° C. […] After the slides were rinsed with PBS for another 3 times, coverslips were mounted and analyzed with a light microscope.

The test system of a further assay is solid lymphoid tumors. Nature of the assay: Apoptosis in solid lymphoid tumors induced in mice, Haemotoxline and Eosine staining. The note with it: noscapine treated mice, microscopic examination. It counts as in vivo.
The test system of another assay is E.G7-OVA cells. Nature of the assay: Inhibition of tumor growth, E.G7-OVA tumors in C57BL/6 mice. It counts as in vivo. Particulars: 3 mg noscapine every day for three weeks, intraperitoneally or intragastric; vs saline. The protocol: C57BL/6 mice were injected subcutaneously in the right flank with 2×10^6 E.G7-OVA cells. Three days later, mice were injected intraperitoneally, every day for three weeks, either with 200 μl saline (n=10), or with 3 mg noscapine dissolved in 200 μl saline (n=10),. Third group of mice (n=10) was fed 3 mg noscapine via intragastric (i.g.) intubation using a 1 ml syringe fitted with a 20 gauge stainless steel ball point needle. After three weeks, all mice were sacrificed by cervical dislocation. Tumors were removed and weighted. Tumor weights were individually plotted and comparisons between control and treatment groups were analyzed by the Student's test.

The next assay deals with Hela cells. The experiment in a line: M phase arrest, alpha-tubulin immunofluorescence and flow cytometry, Hela cells. Particulars: 20 μM noscapine, 24 hr. Type of assay: cell-based. As for the experimental part:
as §1, §2

The test system of assay [3] is tumors derived from malignant melanoma cells. Nature of the assay: Melanoma tumor progression in animals. Type of assay: in vivo.

With `COc1ccc2c(c1OC)CO[C@@H]2[C@H]1c2c(cc3c(c2OC)OCO3)CCN1C` [Compound 4, 1,3-diliydro-4,5-dimethoxy-1-[1-(8-methoxy-2-methyl-6,7-methylenedioxy 1,2,3,4-tetrahydroixoquinolinyl)]isobenzofuran], the initiation of apoptosis result in the assay on HL-60 cells was “initiate apoptosis”. In addition, the “Apoptic Cell Percentage” value with HL-60 cells (20 μM in DMSO, first trial) is given as 48%; in the assay with HL-60 cells (20 μM in DMSO, second trial) it was 32%; in the assay with HL-60 cells (50 μM in DMSO), 52%.
On the same counts, the results for “1,3-dihydro-4,5-dimethoxy-1-[1-(8-methoxy-2-methyl-6,7-methylenedioxy-1,2,3,4-tetrahydroisoquinolinyl)] isobenzofuran-BH3 [Compound 3]” are “initiate apoptosis”, 37%, 28% and 39%.
On to `COc1ccc2c(c1OC)C(=O)O[C@@H]2[C@H]1c2c(cc3c(c2OC)OCO3)CCN1C` [Noscapine], for which the initiation of apoptosis result in the assay on HL-60 cells is “initiate apoptosis”. The “Apoptic Cell Percentage” value was determined as 30% with HL-60 cells (20 μM in DMSO, first trial); 17% in the assay with HL-60 cells (20 μM in DMSO, second trial); 27% with HL-60 cells (50 μM in DMSO). For the same compound, the “M phase arrest of microtubule arrays” value in the assay on thymocyte cells and with Hela cells was “microtubule arrays are arrested in M phase” each time. In addition, the “tubulin assembly (absorbance at 350 nm)” value with bovine brain tubulin [1] is reported as “promotes tubulin assembly”. The Kd at bovine brain tubulin [2] (2 μM tubulin, room temperature, Scatchard plot, read-out: apparent dissociation constant (Kd)) was determined as 1860 nM. In addition, the “fluorescence quenching of tubulin” value with bovine brain tubulin [2] (excitation 278 nm) is “affords fluorescence quenching of tubulin”. Also, the “DNA degradation (gel electrophoresis of fragmented genomic DNA, staining of treated cells)” value in the assay on lymphocyte cells is “progressive DNA degradation with increasing time”. The “apoptotic morphologies of tumor cells” value in the assay with solid lymphoid tumors was “many cells in noscapine treated mice with apoptotic morphologies”. Besides, the tumor weight result in the assay with E.G7-OVA cells is listed as “significantly reduced tumor weight”. Moreover, the “reduction of tumor volume compared to untreated animals” value in [3] is given as approximately 83%.

These data come from patent US6673814B2, “Delivery systems and methods for noscapine and noscapine derivatives, useful as anticancer agents” (Emory University, priority 1997, dated 2004).
